Measurements published in patent publication US20050215614A1, “Substituted indoles and their use as hcv inhibitors” (Rigel Pharmaceuticals, Inc., priority 2003, published 2005).

Assays:
Format in all cases: cell-based
HCV replicon [1] = assay: HCV Replicon Assay (luciferase, 5-2 Luc replicon cells); conditions: 5-2 Luc replicon cells (Huh7), 24-48 hours with compound, luciferase counts
Method in brief: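 Huh7-derived 5-2 Luc replicon cells were seeded at 5000-7500 cells/well, grown 24 h at 37° C. and 5% CO2, then exposed to serial compound concentrations for 24-48 hours.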

HCV replicon [2] = assay: TaqMan RT-PCR Assay (9-13 replicon cells); conditions: 24-48 hours with compound
Procedure: Actively dividing 9-13 replicon cells were seeded at the density of 3×10^4 cells/well in the volume of 1 ml/well into 24 well plate(s). The cells were then incubated at 37° C. and 5% CO2 for 24
Various concentrations of compounds (in the volume of 10 μl) were added into each well 24 hours after seeding the cells. The cells were incubated with the compounds for another 24-48 hours.
After incubating the 9-13 replicon cells with the compounds for 24-48 hours, media were aspirated off and RNA samples were prepared from each well.
TaqMan® (Roche Molecular Systems) one step RT-PCR was performed using the RNA samples according to the manufacturer's manual. Briefly, properly diluted RNA sample, upstream primer, downstream primer, FAM-labeled probe oligo were mixed and water was added to make up the volume to 25 μl. Equal volume of 2× TaqMan Master Mix were added and the reaction was performed in an ABI Prism 7700 Sequence Detector (Applied Biosystems).

HCV replicon [3] = assay: Immunoblotting Assay (9-13 replicon cells); conditions: 9-13 replicon cells (Huh7), 48 hours with compound
Procedure: Actively dividing 9-13 replicon cells (Huh7 cells comprising an HCV replicon) were seeded at the density of 1×10^5 cells/well in the volume of 2 ml/well into 6 well plate(s). The cells were then incubated at 37° C. and 5% CO2 for 24 hours.
Various concentrations of compounds (in the volume of 10 μl) were added into each well 24 hours after seeding the cells. The cells were incubated with the compounds for another 48 hours.
Protein samples were prepared from the cultured cells and resolved on a SDS-PAGE gel.
After electrophoresis, the protein samples on the SDS-PAGE gel were transferred to a nitrocellulose membrane.
The membrane was blocked with 5% non-fat milk in PBS for 1 hr at room temperature.
Primary antibody incubation was performed for 1 hour at room temperature before the membrane was washed for 3 times with PBST (PBS plus 0.1% Tween 20), 15 minutes each.
Horse Radish Peroxidase conjugated secondary antibody incubation was performed for 1 hour at room temperature before the membrane was washed for 3 times with PBST (PBS plus 0.1% Tween 20), 15 minutes each.
The membrane was then soaked in substrate solution (Pierce) and exposed to a film.

| Structure (SMILES) | Activity (concentration of inhibitory activity) (HCV replicon [1]) | Activity (concentration of inhibitory activity) (HCV replicon [2]) | Activity (concentration of inhibitory activity) (HCV replicon [3]) |
| --- | --- | --- | --- |
| Cc1cc2cc(NC(=O)C3CCCC3)ccc2n1C(=O)c1c(Cl)cccc1Cl [Compound 16a-1, 5-Cyclopentanecarbonylamino-1-(2′,6′-dichlorobenzoyl)-2-methylindole] | a (“a” indicates inhibitory activity at a concentration of less than 10 micromolar) | a (“a” indicates inhibitory activity at a concentration of less than 10 micromolar) |  |
| CC(C)(C)c1cc2cc(NC(=O)c3cccs3)ccc2[nH]1 [Compound 281] | a (“a” indicates inhibitory activity at a concentration of less than 10 micromolar) |  | a (“a” indicates inhibitory activity at a concentration of less than 10 micromolar) |
| CC(C)(C)c1cc2cc(NC(=O)C3CC3)ccc2[nH]1 [Compound 290] | a (“a” indicates inhibitory activity at a concentration of less than 10 micromolar) |  |  |
